From US20250268897A1, “USE OF HETEROCYCLIC COMPOUND IN TREATING DISEASES RELATED TO KINASE DRUG-RESISTANT MUTATION AND METHOD THEREFOR” (Sichuan Kelun-Biotech Biopharmaceutical Co., Ltd., priority 2021, published 2025)

How the values were obtained:
[1] = molecular target: RET-G810R enzyme (Homo sapiens (Human), UniProt P07949, G810R); test: RET inhibition experiment, HTRF KinEASE-TK kit, RET-G810R; format: biochemical
[2] = test system: Ba/F3 KIF5B-RET^G810S cells; test: Inhibition of cell proliferation, Cell Titer Glo, Ba/F3 KIF5B-RET^G810S; format: cell-based
Procedure: (§1) Experimental purpose: To evaluate the inhibitory effect of the compound on proliferation of three BaF3 cell lines (Ba/F3 KIF5B-RET^G810R, Ba/F3 KIF5B-RET^G810S, Ba/F3 KIF5B-RET^G810C) in vitro.
(§2) Experimental method: Three Ba/F3 cell lines (Ba/F3 KIF5B-RET^G810R, Ba/F3 KIF5B-RET^G810S Ba/F3 KIF5B-RET^G810C) in logarithmic phase were respectively collected and inoculated into 96-well plates, with 2000 cells/95 μl/well. […] In addition, negative control wells (without the test compound) and blank control wells (without cells) were set.
(§3) the inhibition rate % was fitted using the four-parameter equation “log(agonist) vs response-variable slope (four parameters)” in GraphPad Prism 6.0, and the IC50 was obtained by calculation.

[3] = molecular target: RET-G810C enzyme (Homo sapiens (Human), UniProt P07949, G810C); test: RET inhibition experiment, HTRF KinEASE-TK kit, RET-G810C; format: biochemical
[4] = test system: Ba/F3 KIF5B-RET^G810C cells; test: Inhibition of cell proliferation, Cell Titer Glo, Ba/F3 KIF5B-RET^G810C; format: cell-based
Procedure: as §1, §2, §3

[5] = test system: Ba/F3 KIF5B-RET^G810R subcutaneous tumour; test: In vivo efficacy in BALB/c Nude mouse model with Ba/F3 KIF5B-RET^G810R subcutaneous tumour; conditions: 30 mg/kg, PO, BID × 12
[6] = test system: Ba/F3 KIF5B-RET^G810R cells; test: Inhibition of cell proliferation, Cell Titer Glo, Ba/F3 KIF5B-RET^G810R; format: cell-based
Procedure: as §1, §2, §3

[7] = molecular target: RET-G810S enzyme (Homo sapiens (Human), UniProt P07949, G810S); test: RET inhibition experiment, HTRF KinEASE-TK kit, RET-G810S; format: biochemical
[8] = Mus musculus, BaF3, 72 h, 3 days culture, Cell Titer Glo

Sequence of RET-G810C enzyme (P07949 29-1114 G810C): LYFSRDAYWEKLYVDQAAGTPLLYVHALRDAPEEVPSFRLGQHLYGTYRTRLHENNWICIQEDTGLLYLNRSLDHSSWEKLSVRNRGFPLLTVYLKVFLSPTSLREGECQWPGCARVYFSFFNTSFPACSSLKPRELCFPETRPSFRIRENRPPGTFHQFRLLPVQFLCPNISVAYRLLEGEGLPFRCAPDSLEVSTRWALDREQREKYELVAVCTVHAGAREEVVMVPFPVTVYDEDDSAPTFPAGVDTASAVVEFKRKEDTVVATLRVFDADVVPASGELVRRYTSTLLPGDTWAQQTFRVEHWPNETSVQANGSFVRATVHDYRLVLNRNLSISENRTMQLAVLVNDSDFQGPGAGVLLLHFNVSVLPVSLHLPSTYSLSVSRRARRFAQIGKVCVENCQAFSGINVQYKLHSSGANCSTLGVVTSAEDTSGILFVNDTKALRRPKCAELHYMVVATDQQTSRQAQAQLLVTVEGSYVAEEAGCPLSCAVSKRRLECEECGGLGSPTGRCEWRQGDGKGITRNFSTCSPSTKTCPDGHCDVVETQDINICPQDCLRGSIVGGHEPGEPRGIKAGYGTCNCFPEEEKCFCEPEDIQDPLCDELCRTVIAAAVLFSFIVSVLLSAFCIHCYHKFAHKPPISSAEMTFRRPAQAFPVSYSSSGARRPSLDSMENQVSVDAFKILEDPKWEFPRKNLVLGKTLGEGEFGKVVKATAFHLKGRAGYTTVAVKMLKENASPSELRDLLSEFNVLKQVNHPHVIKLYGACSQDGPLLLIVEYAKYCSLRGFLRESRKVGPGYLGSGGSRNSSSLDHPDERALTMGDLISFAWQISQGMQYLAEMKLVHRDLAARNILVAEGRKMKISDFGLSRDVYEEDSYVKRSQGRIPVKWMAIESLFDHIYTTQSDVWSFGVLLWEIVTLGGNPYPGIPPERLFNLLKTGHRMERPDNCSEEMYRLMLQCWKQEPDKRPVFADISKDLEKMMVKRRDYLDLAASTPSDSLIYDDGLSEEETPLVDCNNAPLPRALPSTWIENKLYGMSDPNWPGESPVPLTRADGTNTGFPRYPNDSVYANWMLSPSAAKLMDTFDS
Sequence of RET-G810R enzyme (P07949 29-1114 G810R): as the sequence (P07949 29-1114 G810C) above, with C782R counted along it
Sequence of RET-G810S enzyme (P07949 29-1114 G810S): as the sequence (P07949 29-1114 G810C) above, with C782S counted along it

Cc1cc(Nc2cc(C)[nH]n2)nc(-c2ccc(N3CC4CC(C3)N4Cc3ccc(-n4cc(F)cn4)nc3)nc2)n1.O=C(O)/C=C/C(=O)O [Compound 1-A, Fumarate of 2-(6-(6-((6-(4-fluoro-1H-pyrazol-1-yl)pyridin-3-yl)methyl)-3,6-diazabicyclo [3.1.1]heptan-3-yl)pyridin-3-yl)-6-methyl-N-(5-methyl-1H-pyrazol-3-yl) pyrimidin-4-amine]
IC50 ([1]; Table 7, value ± spread): 19.6 ± 0.67 nM
Inhibition on RET-G810R enzyme (in words) ([1]; summary of tables): remarkably inhibited
IC50 [2, 8]: 20.2 ± 0.35 nM
Inhibiting the proliferation of Ba/F3 KIF5B-RET^G810S cells (in words) ([2]; comparison with controls): superior to BLU-667 and Loxo-292
IC50 ([3]; Table 7, value ± spread): 53.2 ± 10.7 nM
Inhibition on RET-G810C enzyme (in words) ([3]; summary of tables): remarkably inhibited
IC50 [4, 8]: 65.3 ± 1 nM
Inhibiting the proliferation of Ba/F3 KIF5B-RET^G810C cells (in words) ([4]; comparison with controls): superior to BLU-667 and Loxo-292
TGI (%) tumour growth inhibition rate [5]: 72.37%
VP12 (mm^3, mean ± SEM): tumour volume on Day 12 of administration [5]: 278.53 ± 51.13 mm^3
VP-1 (mm^3, mean ± SEM): tumour volume one day before administration ([5]; baseline of the group): 101.08 ± 4.75 mm^3
IC50 [6, 8]: 26.3 ± 5.76 nM
Inhibiting the proliferation of Ba/F3 KIF5B-RET^G810R cells (in words) ([6]; comparison with controls): superior to BLU-667 and Loxo-292
IC50 ([7]; Table 7, value ± spread): 2.69 ± 0.56 nM
Inhibition on RET-G810S enzyme (in words) ([7]; summary of tables): remarkably inhibited
